Earlier results in PMC10761933, “Acquired and intrinsic resistance to vemurafenib in BRAF^V600E ‐driven melanoma brain metastases” (FEBS Open Bio, 2023).

Tests used:
[1] = mice; stated without reference; cited from earlier work
A375 cells = details: read-out: IC50 against A375 cells; cited from earlier work
[2] = WT mice; cited from earlier work
[3] = system: melanoma brain metastases; details: MBM patients, treatment alone; cited from earlier work

Compound: COc1cc2c(cc1OC)CN(CCc1ccc(NC(=O)c3cccc4c(=O)c5cccc(OC)c5[nH]c34)cc1)CC2 [elacridar]
- t max of oral elacridar [1]: ~4 h

Compound: COC(=O)N[C@@H](C)CNc1nccc(-c2cn(C(C)C)nc2-c2cc(Cl)cc(NS(C)(=O)=O)c2F)n1 [encorafenib]
- IC50 (A375 cells): 4 nM
- brain–plasma ratio [2]: roughly 0.004

Compound: CC(C)(C)c1nc(-c2cccc(NS(=O)(=O)c3c(F)cccc3F)c2F)c(-c2ccnc(N)n2)s1 [dabrafenib]
- IC50 (A375 cells): 4 nM
- brain–plasma ratio [2]: approximately 0.1
- median overall survival [3]: 7 months
